According to US9833520B2, “Labeled, non-peptidic, multivalent integrin antagonist compounds; methods for synthesis and uses thereof” (The Methodist Hospital Research Institute, priority 2011, dated 2017):
“And” between values parts separate entries of the source, which are not always exact repeats. Equal values may be shown once. “Also recorded” adds a separate entry of the source.

What was measured:
[1] = test system: B16F10 melanoma tumor; test: In vivo antitumor efficacy in B16F10 melanoma tumor-bearing mice; conditions: for tumor volume against control group (PBS = 100%): 30 mg/kg i.p. every 12 hours; for tumor volume against control group (PBS = 100%) / average tumor volume: 14 days; for reduction in tumor mass compared to control: 30 mg/kg, endpoint
Description: All animal procedures were approved by appropriate Animal Care and Use Committee. The therapeutic test for antitumor efficacy of IA multivalent compounds was evaluated using tumor-bearing mice, which were prepared by bilateral subcutaneous injection in the thighs of nu/nu female mice (6 weeks old; 20-25 g). The mouse melanoma cancer cell line B16F10 was obtained from Caliper and tested negative for rodent pathogens. The cells were maintained in vitro as described above. The mice were inoculated with suspensions of 1×10^6 B16F10 cells in 100 μL complete medium (10% FBS added). Three days after subcutaneous inoculation (the tumor diameter was approximately 3-5 mm, the tumor volume was approximately 50 to 100 mm^3), tumor-bearing mice (n=7 per group) were injected intraperitoneally (i.p.) with each IA compound (monomer, dimer, or trimer) in PBS or PBS alone for control group. All compounds were serially diluted with PBS, and were given 2 times per day (every 12 hr) at a dose of 100 μL of 7.5, 15, 30 mg/kg per injection for 14 days. […] This study design was deliberately chosen to highlight the effect of multivalency. The tumor size was calculated as a×b^2/2, where ‘a’ is the largest and ‘b’ the smallest diameter. In addition, the weight of the mice and the tumors were recorded after harvesting.
A tumor growth model was used to isolate and interpret the effects of pharmacological dose (pharmacophore) and multivalency. This was done using the R software package ‘geepack’ (Højsgaard et al., 2006; Team et al., 2012). The tumor burden (sum of the volumes of left and right tumors) for each animal was first normalized by dividing by the starting volume on the first day of treatment, then taking the logarithm to linearize the data. The pharmacological dose was decoupled from the molecular valency, N, for this model by defining the pharmacophore or pharmacological dose (PD) as PD=N×MD, where MD is the molar dose. The pharmacological excess (compared to monomer) dose (ED) due to multivalency is then: ED=PD-MD=MD×(N−1). The data was fit to a linear model:
All animal procedures were approved by the appropriate regulatory agencies. The therapeutic test for antitumor efficacy of IA multivalent compounds was evaluated using tumor-bearing mice that were prepared by the subcutaneous injection in the dorsa of nu/nu female mice (6 weeks old; 20-25 g). The mouse melanoma cancer cell line B16F10 was obtained from Caliper, and tested negative for rodent pathogens. The cells were maintained in vitro as described above. Mice were inoculated with a suspension of 1×10^6 B16F10 cells in 100 μL complete medium (10% FBS added). Four days after subcutaneous inoculation (the tumor diameter was approximately […], the tumor volume was approximately 50 to 100 mm^3), tumor-bearing mice (n=7 per group) were inoculated intraperitoneally (i.p.) with each IA compound (Monomer, Dimer, Trimer) in PBS or PBS alone for control group. All compounds were serially diluted with PBS and were given 2 times per day (every 12 hr) so that compounds doses would be 100 μL of 7.5, 15, 30 mg/kg (maximum tolerated dose) for 14 days. The tumor size was calculated as: a×b2/2, where a is the largest and b the smallest diameter.

[2] = test system: HUVECs; test: Anti-angiogenic in vitro assay: endothelial tube formation on Matrigel; assay type: cell-based, human; conditions: 10 μg/mL, 6 hr
Description: The impact of IA derivatives on capillary-like tube formation by HUVECs was investigated. In vitro endothelial tube formation was performed as described in the literature (Park et al., 2007). Growth factor reduced Matrigel® (100 μL, BD Bioscience, San Jose, Calif., USA) was added to each well of a 96-well plate and allowed to polymerize for 30 min at 37° C. HUVECs were suspended in medium at the density of 4×10^5 cells per milliliter, and 100 μL of the cell suspension was added to each Matrigel-coated well in the presence of IA monomer, dimer and trimer. Cells were incubated at 37° C. for 6 hr, and then photographed at 20× magnification using a Micromaster® phase contrast microscope (Fisher Scientific, Pittsburgh, Pa., USA). The branch points were counted and averaged.

[3] = test system: B16F10 cells; test: In vitro cytotoxicity (MTT) assay, B16F10; assay type: cell-based, mouse; conditions: B16F10, 100 μg/mL, 24 hr
Description: For cell cytotoxicity assay, the cells were then seeded into 96-well flat-bottomed tissue-culture plates at 1×10^4 cells/well and incubated for 24 hr in humidified atmosphere of 5% (vol./vol.) CO2 at 37° C. in the presence of each compound. The multivalent compound (monomer, dimer, and trimer) sample solutions were diluted with culture medium (1% FBS added) to obtain concentrations in the range of 0.1-100 μg/mL for each compound. The cytotoxic effects of monomer, dimer and trimer compounds were evaluated by adding 100 μL of each sample in 100 μL culture medium to each well. After 24-hrs' incubation, cell viability was evaluated by mitochondrial conversion of 3-(4,5-dimethylthiazol-2-yl)-2,5-diphenyl tetrazolium bromide (MTT assay) (Allison et al., 1985).
Mouse melanoma B16F10 cells (Caliper.CO,) and human melanoma M21 cells were maintained in RPMI 1640 (Caliper) containing 10% (vol./vol.) fetal bovine serum (Invitrogen, Ontario, Canada), 100 U/mL penicillin G, and 100 μg/mL streptomycin for general cell growing condition. For cell cytotoxicity assay, the cells were then seeded into 96-well flat-bottomed tissue-culture plates at 1×10^4 cells/well and incubated for 24 hr or 72 hr in humidified atmosphere of 5% (vol./vol.) CO2 at 37° C. in the presence of each compound. The multivalent compounds (monomer, dimer, trimer) sample solutions were diluted with culture medium (1% FBS added) to obtain the concentration of each compound in the range of 0.1 to 100 μg/mL. The cytotoxic effects of monomer, dimer and trimer compounds solution were evaluated by adding a mixture of 100 μL of each sample and 100 μL of culture medium to each well. After 24-hr or 72-hr incubation, cell viability was evaluated by mitochondrial conversion of 3-(4,5-dimethylthiazol-2-yl)-2,5-diphenyl tetrazolium bromide (MTT assay).

| SMILES | tumor volume against control group (PBS = 100%) [1] | average tumor volume ([1]; 30 mg/kg i.p. twice per day) | reduction in tumor mass compared to control [1] | average tumor volume ([1]; Example 3, dose not stated) | number of tube branches (control group 100%) [2] | cell viability ([3]; listed as IA-monomer) | reduction in tumor mass compared to control ([1]; listed as dimer) | cell viability ([3]; listed as IA-dimer) | average tumor volume ([1]; 15 mg/kg i.p. twice per day) | average tumor volume as fraction of PBS-treated control mice ([1]; 15 mg/kg, 14 days after start of treatment) | survival ([1]; 7.5, 15, 30 mg/kg twice per day) | average tumor size smaller than in the IA-dimer group ([1]; compared to IA-dimer group) | average tumor size smaller than in the IA-monomer group ([1]; compared to IA-monomer group) | cell viability [3] |
| --- | --- | --- | --- | --- | --- | --- | --- | --- | --- | --- | --- | --- | --- | --- |
| NCCS(=O)(=O)N[C@@H](CNC(=O)c1ccc(OCCNC2=NCCCN2)cc1)C(=O)O [IA, 4-[2-(3,4,5,6-tetrahydropyrimidine-2-ylamino)ethyloxy]benzoyl-2-(S)-aminoethylsulfonyl-amino-β-alanine] | 59.29% | 3300 (s.d. 1200) mm^3 | 36±9% | 5000 mm^3 | 86.6±3.4% | smaller and less significant; also recorded: no significant changes of cell viability |  |  |  |  |  |  |  |  |
| NC(CCCCCC(=O)NCCS(=O)(=O)N[C@@H](CNC(=O)c1ccc(OCCNC2=NCCCN2)cc1)C(=O)O)C(=O)NCCS(=O)(=O)N[C@@H](CNC(=O)c1ccc(OCCNC2=NCCCN2)cc1)C(=O)O (some centres unmarked) [bivalent IA] | 45.33% | 2500 (s.d. 1000) mm^3 |  | 3000 mm^3 | 68.3±2.6% |  | 49±8% | smaller and less significant; also recorded: no significant changes of cell viability |  |  |  |  |  |  |
| O=C(NCCS(=O)(=O)N[C@@H](CNC(=O)c1ccc(OCCNC2=NCCCN2)cc1)C(=O)O)OCCN(CCOC(=O)NCCS(=O)(=O)N[C@@H](CNC(=O)c1ccc(OCCNC2=NCCCN2)cc1)C(=O)O)CCOC(=O)NCCS(=O)(=O)N[C@@H](CNC(=O)c1ccc(OCCNC2=NCCCN2)cc1)C(=O)O [IA trimer] | 32.05% | 1800 (s.d. 800) mm^3 and 1800 mm^3 | 71±7% | 2000 mm^3 | 35.6±1.0% |  |  |  | 2000 mm^3 | less than ⅓; also recorded: less than one-third | all of animals survived for at least 2 weeks | 1.7 fold | 2.3 fold | ~80% |
